Measured values published in patent US10633372B2, “Process for the preparation of amorphous (1S)-1,5-anhydro-1-[3-[[5-(4 fluorophenyl)-2-thienyl]-4-methylphenyl]-D-glucitol and its polymorphs thereof” (MSN LABORATORIES PRIVATE LIMITED, priority 2015, dated 2020).

What was measured:
[1] = cited from earlier work
[2] = as mentioned in WO2008/069327 A1; cited from earlier work
[3] = Particle size distribution; type: physicochemical

Row | Particle size distribution D(0.1) [3] [μm] | Particle size distribution D(0.5) [3] [μm] | Particle size distribution D(0.9) [3] [μm] | Compound | physical change between the sorption/desorption cycle ([1]; DVS, two cycles, appearance changed as humidity increased from 70% to 90% RH) | hygroscopic nature confirmed by Dynamic vapor sorption (DVS) analysis ([1]; amorphous canagliflozin prepared per US'487 A1 (toluene solution into n-heptane)) | stability and handling of amorphous form [2]
1 |  |  |  | Cc1ccc([C@@H]2O[C@H](CO)[C@@H](O)[C@H](O)[C@H]2O)cc1Cc1ccc(-c2ccc(F)cc2)s1 [amorphous canagliflozin, (1S)-1,5-anhydro-1-[3-[[5-(4-fluorophenyl)-2-thienyl]methyl]-4-methylphenyl]-D-glucitol] | conversion or partial conversion from the amorphous state to a crystalline state | hygroscopic | suffers from stability and handling issues such as poor filterability
2 | 3.29 | 7.69 | 14.5 | Cc1ccc([C@@H]2O[C@H](CO)[C@@H](O)[C@H](O)[C@H]2O)cc1Cc1ccc(-c2ccc(F)cc2)s1 [Example-2, (1S)-1,5-anhydro-1-[3-[[5-(4-fluorophenyl)-2-thienyl]methyl]-4-methylphenyl]-D-glucitol] |  |  | 
3 | 28.7 | 61.4 | 116.4 | Cc1ccc([C@@H]2O[C@H](CO)[C@@H](O)[C@H](O)[C@H]2O)cc1Cc1ccc(-c2ccc(F)cc2)s1 [Example-4, (1S)-1,5-anhydro-1-[3-[[5-(4-fluorophenyl)-2-thienyl]methyl]-4-methylphenyl]-D-glucitol] |  |  | 
